Experimental data published in patent publication US20150299143A1, “SUBSTITUTED TRIAZOLE AND IMIDAZOLE COMPOUNDS” (HOFFMANN-LA ROCHE INC., priority 2012, published 2015).
Where two headings read alike, the source gives them in different places.

How the values were obtained:
[1] = biological target: T1, β 5i (chymotrypsin-like activity) (Homo sapiens, UniProt P20618+P28062); assay: Cell-Based Proteasome subunit activity/selectivity assay, β5i, substrate (ANW)2Rh110; conditions: Ramos cells; substrate (ANW)2Rh110 (β5i); highest concentration tested 20 μM; read-out: Ic50:ramos:ac-(anw)2-r110
T1 construct: protease activity associated with the proteasome complex in cultured cells; endogenous in cells; host or cells: Ramos cells
How it was run: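 Cell-based fluorogenic assay measuring chymotrypsin-like β5i proteasome activity using the substrate (ANW)2Rh110. Cultured cells received 0.5 μl of 100× 4-fold serial diluted compounds or DMSO per well, were incubated 30 minutes at 37° C, then equilibrated 15 minutes at room temperature. After shaking one minute @ 700 rpm and 120 min room-temperature incubation, fluorescence was read at 500 nm excitation/519 nm emission on an Envision reader.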

[2] = biological target: T2, β5c (chymotrypsin-like activity) (Homo sapiens, UniProt P20618+P28074); assay: Cell-Based Proteasome subunit activity/selectivity assay, β5c, substrate (WLA)2Rh110
T2 construct: protease activity associated with the proteasome complex in cultured cells; endogenous in cells; host or cells: Ramos cells
How it was run: (§1)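 Subunit activity in cultured cells read with subunit-selective fluorogenic Rh110 substrates: (LLE)2 for β1c, (PAL)2 for β1i, (KQL)2 for β2c/2i, (WLA)2 for β5c. Cells exposed to 4-fold serially diluted compound (top 20 μM) 30 min at 37 °C, then substrate 120 min at room temperature; fluorescence 500/519 nm.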

β 2c/2i (trypsin-like) = assay: Cell-Based Proteasome subunit activity/selectivity assay, β2c/2i, substrate (KQL)2Rh110; conditions: Ramos cells; substrate (KQL)2Rh110 (β2c/2i); highest concentration tested 20 μM
How it was run: as §1

β 1i (caspase-like) = biological target: T3, β 1i (caspase-like) (Homo sapiens, UniProt P28065+P40306); assay: Cell-Based Proteasome subunit activity/selectivity assay, β1i, substrate (PAL)2Rh110
T3 construct: protease activity associated with the proteasome complex in cultured cells; endogenous in cells; host or cells: Ramos cells
How it was run: as §1

β 1c (caspase-like) = biological target: T4, β 1c (caspase-like) (Homo sapiens, UniProt P28072+Q99436); assay: Cell-Based Proteasome subunit activity/selectivity assay, β1c, substrate (LLE)2Rh110
T4 construct: protease activity associated with the proteasome complex in cultured cells; endogenous in cells; host or cells: Ramos cells
How it was run: as §1

[3] = Ramos cells, substrate (WLA)2Rh110 (β5c), highest concentration tested 20 μM, read-out: Ic50:ramos:rh110-(wla)2
[4] = Ramos cells, substrate (PAL)2Rh110 (β1i), highest concentration tested 20 μM, read-out: Ic50:ramos:rh110-(pal)2
[5] = Ramos cells, substrate (LLE)2Rh110 (β1c), highest concentration tested 20 μM, read-out: Ic50:ramos:rh110-(lle)2

| Compound | IC50 [1] | IC50 [2, 3] | IC50 (β 2c/2i (trypsin-like)) | IC50 (β 1i (caspase-like); [4]) | IC50 (β 1c (caspase-like); [5]) | IC50 [2] | IC50 (β 1i (caspase-like)) | IC50 (β 1c (caspase-like)) |
| --- | --- | --- | --- | --- | --- | --- | --- | --- |
| COc1ccc(C(=O)NCCn2cc(C(=O)NC(C#N)c3ccc(C(C)C)cc3)nn2)c(OC)c1OC (stereo not drawn) [Example 61, 1-[2-(2,3,4-Trimethoxy-benzoylamino)-ethyl]-1H-[1,2,3]triazole-4-carboxylic acid [cyano-(4-isopropyl-phenyl)-methyl]-amide] | 1.31 µM | ≥ 20 µM | ≥ 20 µM | ≥ 20 µM | 17.1 µM | – | – | – |
| COc1ccc(C(=O)NCCn2cc(C(=O)NCc3ccc(SC)cc3)nn2)c(OC)c1OC [Example 6, 1-[2-(2,3,4-Trimethoxy-benzoylamino)-ethyl]-1H-[1,2,3]triazole-4-carboxylic acid 4-methylsulfanyl-benzylamide] | 0.919 µM | ≥ 20 µM | ≥ 20 µM | ≥ 20 µM | ≥ 20 µM | – | – | – |
| COc1ccc(C(=O)NCCn2cc(C(=O)NC(C#N)c3ccc(OCc4ccccc4)cc3)nn2)c(OC)c1OC (stereo not drawn) [Example 56, 1-[2-(2,3,4-Trimethoxy-benzoylamino)-ethyl]-1H-[1,2,3]triazole-4-carboxylic acid [(4-benzyloxy-phenyl)-cyano-methyl]-amide] | 5.68 µM | 8.3 µM | ≥ 20 µM | ≥ 20 µM | 19.1 µM | – | – | – |
| CCc1ccc(C(C#N)NC(=O)c2cn(CCNC(=O)c3ccc(F)cc3OC)nn2)cc1 (stereo not drawn) [Example 36, 1-[2-(4-Fluoro-2-methoxy-benzoylamino)-ethyl]-1H-[1,2,3]triazole-4-carboxylic acid [cyano-(4-ethyl-phenyl)-methyl]-amide] | 2.06 µM | ≥ 20 µM | ≥ 20 µM | ≥ 20 µM | ≥ 20 µM | – | – | – |
| COc1ccc(C(=O)NCCn2cc(C(=O)NC(C#N)c3cccc4ccccc34)nn2)c(OC)c1OC (stereo not drawn) [Example 57, 1-[2-(2,3,4-Trimethoxy-benzoylamino)-ethyl]-1H-[1,2,3]triazole-4-carboxylic acid (cyano-naphthalen-1-yl-methyl)-amide] | 6.49 µM | – | ≥ 20 µM | – | – | ≥ 20 µM | ≥ 20 µM | ≥ 20 µM |
| CCc1ccc(C(C#N)NC(=O)c2cn(CCNC(=O)C3Cc4ccccc4C3)nn2)cc1 (stereo not drawn) [Example 12, 1-{2-[(Indane-2-carbonyl)-amino]-ethyl}-1H-[1,2,3]triazole-4-carboxylic acid [cyano-(4-ethyl-phenyl)-methyl]-amide] | 1.26 µM | ≥ 20 µM | ≥ 20 µM | ≥ 20 µM | ≥ 20 µM | – | – | – |
| COc1ccc(C(=O)CNC(=O)c2cn(CCNC(=O)c3ccc(OC)c(OC)c3OC)nn2)cc1 [Example 77, 1-[2-(2,3,4-Trimethoxy-benzoylamino)-ethyl]-1H-[1,2,3]triazole-4-carboxylic acid [2-(4-methoxy-phenyl)-2-oxo-ethyl]-amide] | 8.75 µM | ≥ 20 µM | ≥ 20 µM | ≥ 20 µM | ≥ 20 µM | – | – | – |
| COc1ccc(C(C#N)NC(=O)c2cn(CCNC(=O)c3ccc(OC)c(OC)c3OC)nn2)cn1 (stereo not drawn) [Example 65, 1-[2-(2,3,4-Trimethoxy-benzoylamino)-ethyl]-1H-[1,2,3]triazole-4-carboxylic acid [cyano-(6-methoxy-pyridin-3-yl)-methyl]-amide] | 0.947 µM | ≥ 20 µM | ≥ 20 µM | ≥ 20 µM | 17.8 µM | – | – | – |
| CCc1ccc(C(C#N)NC(=O)c2cn(CCNC(=O)c3cc(OC)ccc3F)nn2)cc1 (stereo not drawn) [Example 32, 1-[2-(2-Fluoro-5-methoxy-benzoylamino)-ethyl]-1H-[1,2,3]triazole-4-carboxylic acid [cyano-(4-ethyl-phenyl)-methyl]-amide] | 0.682 µM | ≥ 20 µM | ≥ 20 µM | ≥ 20 µM | ≥ 20 µM | – | – | – |
| COc1ccc(C(=O)NCCn2cc(C(=O)NCc3ccc(Cl)cc3)nn2)c(OC)c1OC [Example 5, 1-[2-(2,3,4-Trimethoxy-benzoylamino)-ethyl]-1H-[1,2,3]triazole-4-carboxylic acid 4-chloro-benzylamide] | 6.49 µM | ≥ 20 µM | ≥ 20 µM | ≥ 20 µM | ≥ 20 µM | – | – | – |
| COc1ccc(C(=O)NCCn2cc(C(=O)NC(C#N)c3ccc(C(F)(F)F)cc3)nn2)c(OC)c1OC (stereo not drawn) [Example 60, 1-[2-(2,3,4-Trimethoxy-benzoylamino)-ethyl]-1H-[1,2,3]triazole-4-carboxylic acid [cyano-(4-trifluoromethyl-phenyl)-methyl]-amide] | 0.619 µM | ≥ 20 µM | ≥ 20 µM | ≥ 20 µM | ≥ 20 µM | – | – | – |
| CCOc1ccc(C(=O)NCCn2cc(C(=O)NC(C#N)c3ccc(CC)cc3)nn2)nc1 (stereo not drawn) [Example 28, 5-Ethoxy-pyridine-2-carboxylic acid [2-(4-{[cyano-(4-ethyl-phenyl)-methyl]-carbamoyl}-[1,2,3]triazol-1-yl)-ethyl]-amide] | 0.933 µM | 13.3 µM | ≥ 20 µM | ≥ 20 µM | ≥ 20 µM | – | – | – |
| COc1cccc(C(C#N)NC(=O)c2cn(CCNC(=O)c3ccc(OC)c(OC)c3OC)nn2)c1 (stereo not drawn) [Example 52, 1-[2-(2,3,4-Trimethoxy-benzoylamino)-ethyl]-1H-[1,2,3]triazole-4-carboxylic acid [cyano-(3-methoxy-phenyl)-methyl]-amide] | 2.69 µM | ≥ 20 µM | ≥ 20 µM | ≥ 20 µM | ≥ 20 µM | – | – | – |

The next molecules have a lower IC50 [1] than those just listed; values first:

| IC50 [1] | IC50 [2, 3] | IC50 (β 2c/2i (trypsin-like)) | IC50 (β 1i (caspase-like); [4]) | IC50 (β 1c (caspase-like); [5]) | IC50 [2] | IC50 (β 1i (caspase-like)) | IC50 (β 1c (caspase-like)) | Compound |
| --- | --- | --- | --- | --- | --- | --- | --- | --- |
| 0.404 µM | ≥ 20 µM | ≥ 20 µM | ≥ 20 µM | ≥ 20 µM | – | – | – | COc1ccc(C(=O)NCCn2cc(C(=O)NC(C#N)c3ccc(C)cc3)nn2)c(OC)c1OC (stereo not drawn) [Example 62, 1-[2-(2,3,4-Trimethoxy-benzoylamino)-ethyl]-1H-[1,2,3]triazole-4-carboxylic acid (cyano-p-tolyl-methyl)-amide] |
| 0.327 µM | 16.8 µM | ≥ 20 µM | ≥ 20 µM | ≥ 20 µM | – | – | – | COc1ccc(C(=O)NCCn2cc(C(=O)NC(C#N)c3ccc(Cl)cc3)nn2)c(OC)c1OC (stereo not drawn) [Example 68, 1-[2-(2,3,4-Trimethoxy-benzoylamino)-ethyl]-1H-[1,2,3]triazole-4-carboxylic acid [(4-chloro-phenyl)-cyano-methyl]-amide] |
| 0.461 µM | 8.6 µM | ≥ 20 µM | ≥ 20 µM | ≥ 20 µM | – | – | – | COc1ccc(C(=O)NCCn2cc(C(=O)N[C@@H](Cc3ccccc3)C(=O)C(=O)NCc3ccccc3)nn2)c(OC)c1OC [Example 88, 1-[2-(2,3,4-Trimethoxy-benzoylamino)-ethyl]-1H-[1,2,3]triazole-4-carboxylic acid ((S)-1-benzyl-2-benzylcarbamoyl-2-oxo-ethyl)-amide] |
| 0.524 µM | ≥ 20 µM | ≥ 20 µM | ≥ 20 µM | ≥ 20 µM | – | – | – | COc1cc(C(F)(F)F)ccc1C(=O)NCCn1cc(C(=O)NC(C#N)c2ccc(C(F)(F)F)cc2)nn1 (stereo not drawn) [Example 72, 1-[2-(2-Methoxy-4-trifluoromethyl-benzoylamino)-ethyl]-1H-[1,2,3]triazole-4-carboxylic acid [cyano-(4-trifluoromethyl-phenyl)-methyl]-amide] |
| 0.447 µM | ≥ 20 µM | ≥ 20 µM | ≥ 20 µM | ≥ 20 µM | – | – | – | CCOC(=O)[C@H](CCc1ccccc1)NC(=O)c1cn(CCNC(=O)c2ccc(OC)c(OC)c2OC)nn1 [Example 80, (S)-4-Phenyl-2-({1-[2-(2,3,4-trimethoxy-benzoylamino)-ethyl]-1H-[1,2,3]triazole-4-carbonyl}-amino)-butyric acid ethyl ester] |
| 0.134 µM | 16.1 µM | ≥ 20 µM | ≥ 20 µM | ≥ 20 µM | – | – | – | CCc1ccc(C(C#N)NC(=O)c2cn(CCNC(=O)c3ccc(Cl)cc3F)nn2)cc1 (stereo not drawn) [Example 31, 1-[2-(4-Chloro-2-fluoro-benzoylamino)-ethyl]-1H-[1,2,3]triazole-4-carboxylic acid [cyano-(4-ethyl-phenyl)-methyl]-amide] |
| 0.159 µM | 3.39 µM | ≥ 20 µM | 0.976 µM | ≥ 20 µM | – | – | – | CC(CCc1ccccc1)NC(=O)c1cn(CCNC(=O)c2ccc(C(F)(F)F)cc2F)nn1 (stereo not drawn) [Example 79, 1-[2-(2-Fluoro-4-trifluoromethyl-benzoylamino)-ethyl]-1H-[1,2,3]triazole-4-carboxylic acid (1-methyl-3-phenyl-propyl)-amide] |
| 0.072 µM | ≥ 20 µM | ≥ 20 µM | ≥ 20 µM | ≥ 20 µM | – | – | – | CCc1ccc(C(C#N)NC(=O)c2cn(CCNC(=O)C3=C(C)c4ccccc4C3)nn2)cc1 (stereo not drawn) [Example 25, 1-{2-[(3-Methyl-1H-indene-2-carbonyl)-amino]-ethyl}-1H-[1,2,3]triazole-4-carboxylic acid [cyano-(4-ethyl-phenyl)-methyl]-amide] |
